Data reported in US20220315890A1, “NERVE CELL AND APPLICATION THEREOF” (FUJIFILM Corporation, priority 2021, published 2022).

Key:
[1] = tested on: hiPSC-derived nerve cells overexpressing tau (1N4R); test: Nerve cell death / cell survival by CellTiter Glo assay after overexpression of tau; type: cell-based, human; conditions: compound added at replating, 2 days before lentivirus infection, cultured about 7 days, FIG. 8
Protocol: (§1) Frozen nerve cells were thawed in a hot water bath and plated on a 96-well plate at the number of cells of about 3×10^4 cells/well or on a 12-well plate at about 30×10^4 cells/well, where the plates had been coated with poly-D-lysine (PDL) and iMatrix (Nippi, Incorporated), in a neural replating medium containing DOX (a medium obtained by adding 2% of a B27 Plus supplement, 1% of a Culture One supplement, 200 μmol/L of dbcAMP, 200 μmol/L of L-ascorbic acid, and 2 μg/mL of DOX to a Neurobasal plus:DMEM/F12 HAM=1:1 medium). In addition, 1 μmol/L of Tau Accell siRNA (Dharmacon, Inc., #A-012488-13) described in (7) below or a compound described in (9) below was added thereto. After the culture in a CO2 incubator at 37° C. for 2 days, the cells were […] and cultured for about 7 days, and then various evaluations were carried out.
The decrease in cell survival rate due to overexpression of tau according to the method (4) was confirmed by the CellTiter Glo assay (Promega Corporation). It was confirmed that about 20% to 90% of nerve cell death occurred due to overexpression of tau depending on the amount of lentivirus.
According to the method (4), the drug efficacy of methylene blue and isoproterenol, which had been reported to have an inhibitory action on tau aggregation in nerve cells after the overexpression of tau, and a microtubule stabilizer epothilone D was evaluated. The cytoprotective action of the compound was measured by a CellTiter Glo assay. The effect on tau aggregation was quantified by standardizing the Tau oligomer antibody-positive protrusion length in the neurite obtained by fluorescent staining with the 4R tau antibody-positive protrusion length.

[2] = molecular target: T1, tau aggregation in hiPSC-derived nerve cells overexpressing tau (1N4R) (Homo sapiens, UniProt P10636); test: Tau aggregation: Tau oligomer antibody (T22)-positive protrusion length standardized with 4R tau antibody-positive protrusion length; type: cell-based; conditions: at the compound concentration at which a cytoprotective action was exhibited; fluorescent staining; FIG. 8
T1 construct: expressed in transfected cells; host or cells: human iPS cell-derived nerve cells (Ngn2 / miR-9/9*-124 induced), transduced with CSII-TRE-hTau (1N4R)-IRES-Zeo lentivirus, DOX-induced
Protocol: as §1
The nerve cells after the overexpression of tau according to the method (4) were subjected to fluorescent staining using a tau oligomer antibody (T22) (Merck Millipore).
The cytoprotective action of the compound was measured by a CellTiter Glo assay. The effect on tau aggregation was quantified by standardizing the Tau oligomer antibody-positive protrusion length in the neurite obtained by fluorescent staining with the 4R tau antibody-positive protrusion length.

T1 sequence (P10636 1-412 isoform P10636-7): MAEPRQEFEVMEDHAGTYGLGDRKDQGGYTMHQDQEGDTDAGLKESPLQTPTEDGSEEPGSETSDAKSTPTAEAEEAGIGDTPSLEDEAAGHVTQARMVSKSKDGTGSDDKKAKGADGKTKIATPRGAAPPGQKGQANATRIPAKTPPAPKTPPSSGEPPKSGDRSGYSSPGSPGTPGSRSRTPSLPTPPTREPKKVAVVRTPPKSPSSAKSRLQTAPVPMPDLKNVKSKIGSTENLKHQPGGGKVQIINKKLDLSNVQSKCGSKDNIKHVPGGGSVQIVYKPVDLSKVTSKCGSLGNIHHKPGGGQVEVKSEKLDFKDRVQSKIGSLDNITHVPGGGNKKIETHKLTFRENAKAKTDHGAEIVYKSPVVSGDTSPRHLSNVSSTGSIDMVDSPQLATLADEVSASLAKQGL

Structure (SMILES)	cytoprotective action (CellTiter Glo assay) [1]	effect on tau aggregation (tau polymerization) [2]
C/C1=C/C[C@@H](/C(C)=C/c2csc(C)n2)OC(=O)C[C@H](O)C(C)(C)C(=O)[C@H](C)[C@@H](O)[C@@H](C)CCC1 [epothilone D]	partial cytoprotective action	not changed
CC(C)NCC(O)c1ccc(O)c(O)c1 (stereo not drawn) [isoproterenol]	partial cytoprotective action	partial inhibitory action on tau aggregation
CN(C)c1ccc2nc3ccc(=[N+](C)C)cc-3sc2c1 [methylene blue]	partial cytoprotective action	partial inhibitory action on tau aggregation
